# Test results published in patent publication US20120270884A1, “Methods of Treating Aneurysmal Dilatation, Blood Vessel Wall Weakness and Specifically Abdominal Aortic and Thoracic Aneurysm Using Matrix Metalloprotease-2 Inhibitors” (SYMPHONY EVOLUTION, INC., priority 2009, published 2012).
# How the values were obtained:
# Assay type in all cases: biochemical
# [1] = target: T1, MMP-1 (Fibroblast collagenase) (Homo sapiens, UniProt P03956); test: In vitro metalloprotease inhibition, MMP-1
# T1 sequence (P03956 100-469): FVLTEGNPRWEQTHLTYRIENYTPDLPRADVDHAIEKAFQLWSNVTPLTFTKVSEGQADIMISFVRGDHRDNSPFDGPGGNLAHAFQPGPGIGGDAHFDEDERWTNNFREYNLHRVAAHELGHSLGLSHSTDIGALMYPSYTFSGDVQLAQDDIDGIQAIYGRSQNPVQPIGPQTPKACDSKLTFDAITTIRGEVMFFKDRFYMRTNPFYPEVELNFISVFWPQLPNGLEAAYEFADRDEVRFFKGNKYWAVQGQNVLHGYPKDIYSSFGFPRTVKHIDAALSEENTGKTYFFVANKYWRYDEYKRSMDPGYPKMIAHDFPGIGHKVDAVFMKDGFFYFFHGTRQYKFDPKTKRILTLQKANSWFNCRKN
# Source text: (§1) Blank cells indicate lack of data only.
# [2] = target: T2, MMP-2 (72 kDa gelatinase, gelatinase A) (Homo sapiens, UniProt P08253); test: In vitro metalloprotease inhibition, MMP-2
# T2 sequence (P08253 110-660): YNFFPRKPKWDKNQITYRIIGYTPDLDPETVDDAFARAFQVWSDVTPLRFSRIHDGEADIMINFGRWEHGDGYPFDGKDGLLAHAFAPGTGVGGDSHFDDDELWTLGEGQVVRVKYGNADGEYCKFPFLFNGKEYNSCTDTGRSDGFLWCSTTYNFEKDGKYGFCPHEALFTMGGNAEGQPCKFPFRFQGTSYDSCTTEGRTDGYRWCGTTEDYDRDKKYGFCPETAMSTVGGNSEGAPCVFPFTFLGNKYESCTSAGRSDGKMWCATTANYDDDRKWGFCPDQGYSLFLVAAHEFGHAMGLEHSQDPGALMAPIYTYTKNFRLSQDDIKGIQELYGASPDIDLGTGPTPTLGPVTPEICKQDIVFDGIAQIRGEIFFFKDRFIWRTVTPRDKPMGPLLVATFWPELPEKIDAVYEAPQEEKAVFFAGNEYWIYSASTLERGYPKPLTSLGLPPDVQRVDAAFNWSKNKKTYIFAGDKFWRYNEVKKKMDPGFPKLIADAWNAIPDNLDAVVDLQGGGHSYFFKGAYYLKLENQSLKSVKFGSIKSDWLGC
# MMP-3 (Stromelysin-1) = MMP-3 (Stromelysin-1) (Homo sapiens, UniProt P08254); test: In vitro metalloprotease inhibition, MMP-3
# Source text: as §1
# MMP-13 (collagenase-3) = MMP-13 (collagenase-3) (Homo sapiens, UniProt P45452); test: In vitro metalloprotease inhibition, MMP-13
# Sequence of MMP-3 (Stromelysin-1) (P08254 100-477, species assumed): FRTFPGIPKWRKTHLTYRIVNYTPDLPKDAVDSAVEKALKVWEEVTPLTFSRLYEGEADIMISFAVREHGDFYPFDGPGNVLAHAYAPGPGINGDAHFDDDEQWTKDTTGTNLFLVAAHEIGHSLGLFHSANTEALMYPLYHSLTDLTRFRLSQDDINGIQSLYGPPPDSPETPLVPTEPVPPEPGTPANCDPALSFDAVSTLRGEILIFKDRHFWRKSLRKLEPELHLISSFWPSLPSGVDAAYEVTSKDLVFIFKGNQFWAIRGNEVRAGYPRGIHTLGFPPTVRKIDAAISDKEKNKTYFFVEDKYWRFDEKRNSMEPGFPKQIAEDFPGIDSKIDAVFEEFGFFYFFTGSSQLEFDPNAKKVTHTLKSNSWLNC
Compound,IC50 [1] [µM],IC50 [2] [µM],IC50 (MMP-3 (Stromelysin-1)) [µM],IC50 (MMP-13 (collagenase-3)) [µM]
O=C(NO)[C@H]1CN(C(=O)OCCN2CCCC2)CCN1S(=O)(=O)c1cc(F)c(Oc2ccc(Cl)cc2)c(F)c1 [Entry 18],> 20,< 0.05,0.05 to 1,< 0.05
O=C(NO)[C@H]1CN(C(=O)N2CCOCC2)CCN1S(=O)(=O)c1ccc(-c2cccc(F)c2)nc1 [Entry 58],0.05 to 1,< 0.05,0.05 to 1,< 0.05
O=C(CN1CCOCC1)NC(=O)N1CCN(S(=O)(=O)c2cc(F)c(Oc3ccc(Cl)cc3)c(F)c2)[C@@H](C(=O)NO)C1 [Entry 46],1 to 20,< 0.05,0.05 to 1,< 0.05
O=C(O)CN1CCN(S(=O)(=O)c2cc(F)c(Oc3ccc(Cl)cc3)c(F)c2)[C@@H](C(=O)NO)C1 [Entry 63],> 20,0.05 to 1,1 to 20,0.05 to 1
COCCOC(=O)N1CCN(S(=O)(=O)c2ccc(Oc3ccc(C#N)cc3)c(F)c2)[C@@H](C(=O)NO)C1 [Entry 5],0.05 to 1,< 0.05,0.05 to 1,< 0.05
N#Cc1ccc(Oc2ccc(S(=O)(=O)N3CCN(C(=O)N4CCOCC4)C[C@@H]3C(=O)NO)cc2F)cc1 [Entry 7],0.05 to 1,< 0.05,< 0.05,< 0.05
O=C(NO)[C@H]1CN(CC(=O)N2CCCC2)CCN1S(=O)(=O)c1cc(F)c(Oc2ccc(Cl)cc2)c(F)c1 [Entry 21],> 20,< 0.05,1 to 20,0.05 to 1
CN(C)C(=O)CN1CCN(S(=O)(=O)c2cc(F)c(Oc3ccc(Cl)cc3)c(F)c2)[C@@H](C(=O)NO)C1 [Entry 20],> 20,< 0.05,1 to 20,< 0.05
O=C(NO)[C@H]1CN(C(=O)OCCN2CCCCC2)CCN1S(=O)(=O)c1cc(F)c(Oc2ccc(Cl)cc2)c(F)c1 [Entry 27],1 to 20,< 0.05,0.05 to 1,< 0.05
O=C(NO)[C@H]1CN(C(=O)CN2CCOCC2)CCN1S(=O)(=O)c1cc(F)c(Oc2ccc(Cl)cc2)c(F)c1 [Entry 25],> 20,< 0.05,0.05 to 1,< 0.05
O=C(NO)[C@H]1CN(C(=O)OCc2ccccc2)CCN1S(=O)(=O)c1cc(F)c(Oc2ccc(Cl)cc2)c(F)c1 [Entry 32],1 to 20,< 0.05,0.05 to 1,< 0.05
O=C(CCl)NC(=O)N1CCN(S(=O)(=O)c2cc(F)c(Oc3ccc(Cl)cc3)c(F)c2)[C@@H](C(=O)NO)C1 [Entry 33],1 to 20,< 0.05,0.05 to 1,< 0.05
CN1CCN(C(=O)N2CCN(S(=O)(=O)c3cc(F)c(Oc4ccc(Cl)cc4)c(F)c3)[C@@H](C(=O)NO)C2)CC1 [Entry 16],> 20,< 0.05,1 to 20,< 0.05
O=C(NO)[C@H]1CNCCN1S(=O)(=O)c1cc(F)c(Oc2ccc(F)cc2)c(F)c1 [Entry 11],> 20,0.05 to 1,1 to 20,> 20
CN1CCN(CC(=O)N2CCN(S(=O)(=O)c3cc(F)c(Oc4ccc(Cl)cc4)c(F)c3)[C@@H](C(=O)NO)C2)CC1 [Entry 24],> 20,< 0.05,1 to 20,< 0.05
CN1CCN(C(=O)NS(=O)(=O)N2CCN(S(=O)(=O)c3cc(F)c(Oc4ccc(Cl)cc4)c(F)c3)[C@@H](C(=O)NO)C2)CC1 [Entry 39],0.05 to 1,< 0.05,< 0.05,< 0.05
COCCOC(=O)N1CCN(S(=O)(=O)c2ccc(Oc3ccc(Cl)cc3)c(F)c2)[C@@H](C(=O)NO)C1 [Entry 4],0.05 to 1,< 0.05,< 0.05,< 0.05
COCCOC(=O)N1CCN(S(=O)(=O)c2ccc(-c3cccc(F)c3)nc2)[C@@H](C(=O)NO)C1 [Entry 66],0.05 to 1,< 0.05,< 0.05,< 0.05
CC(C)(C)OC(=O)N1CCN(S(=O)(=O)c2cc(F)c(Oc3ccc(F)cc3)c(F)c2)[C@@H](C(=O)NO)C1 [Entry 9],1 to 20,< 0.05,1 to 20,1 to 20

Compound,IC50 [1] [µM],IC50 [2] [µM],IC50 (MMP-3 (Stromelysin-1)) [µM],IC50 (MMP-13 (collagenase-3)) [µM]
CN1CCN(S(=O)(=O)c2cc(F)c(Oc3ccc(F)cc3)c(F)c2)[C@@H](C(=O)NO)C1 [Entry 14],> 20,< 0.05,> 20,< 0.05
O=C(NO)[C@H]1CN(S(=O)(=O)Cc2cc(Cl)cc(Cl)c2)CCN1S(=O)(=O)c1cc(F)c(Oc2ccc(Cl)cc2)c(F)c1 [Entry 61],> 20,1 to 20,> 20,1 to 20
CCCCCCC(=O)N1CCN(S(=O)(=O)c2cc(F)c(Oc3ccc(Cl)cc3)c(F)c2)[C@@H](C(=O)NO)C1 [Entry 43],> 20,< 0.05,0.05 to 1,< 0.05
CS(=O)(=O)N1CCN(S(=O)(=O)c2cc(F)c(Oc3ccc(Cl)cc3)c(F)c2)[C@@H](C(=O)NO)C1 [Entry 28],0.05 to 1,< 0.05,0.05 to 1,< 0.05
CN(C)S(=O)(=O)N1CCN(S(=O)(=O)c2cc(F)c(Oc3ccc(Cl)cc3)c(F)c2)[C@@H](C(=O)NO)C1 [Entry 36],1 to 20,< 0.05,0.05 to 1,< 0.05
CCOC(=O)N1CCN(S(=O)(=O)c2cc(F)c(Oc3ccc(F)cc3)c(F)c2)[C@@H](C(=O)NO)C1 [Entry 13],1 to 20,< 0.05,0.05 to 1,< 0.05
CN(C)c1ccc2c(S(=O)(=O)N3CCN(S(=O)(=O)c4cc(F)c(Oc5ccc(Cl)cc5)c(F)c4)[C@@H](C(=O)NO)C3)cccc2c1 [Entry 49],> 20,< 0.05,0.05 to 1,< 0.05
CN(C)c1ccc2ccc(S(=O)(=O)N3CCN(S(=O)(=O)c4cc(F)c(Oc5ccc(Cl)cc5)c(F)c4)[C@@H](C(=O)NO)C3)cc2c1 [Entry 50],> 20,> 20,0.05 to 1,< 0.05
O=C(NO)[C@H]1CN(C(=O)Cc2ccncc2)CCN1S(=O)(=O)c1cc(F)c(Oc2ccc(Cl)cc2)c(F)c1 [Entry 52],1 to 20,< 0.05,1 to 20,< 0.05
O=C(NO)[C@H]1CN(C(=O)N2CCOCC2)CCN1S(=O)(=O)c1ccc(Oc2ccc(F)cc2)c(F)c1 [Entry 8],0.05 to 1,< 0.05,< 0.05,< 0.05
COCCOC(=O)N1CCN(S(=O)(=O)c2ccc(Oc3ccc(F)cc3)cc2)[C@@H](C(=O)NO)C1 [Entry 1],< 0.05,< 0.05,< 0.05,< 0.05
O=C(NO)[C@H]1CN(C(=O)c2ccc(-c3ccccc3)cc2)CCN1S(=O)(=O)c1cc(F)c(Oc2ccc(Cl)cc2)c(F)c1 [Entry 51],1 to 20,0.05 to 1,1 to 20,0.05 to 1
COCCOC(=O)N1CCN(S(=O)(=O)c2ccc(Oc3ccc4c(c3)CCCC4)nc2)[C@@H](C(=O)NO)C1 [Entry 64],0.05 to 1,< 0.05,< 0.05,< 0.05
O=C(NO)[C@H]1CN(C(=O)C(=O)N2CCCCC2)CCN1S(=O)(=O)c1cc(F)c(Oc2ccc(Cl)cc2)c(F)c1 [Entry 35],1 to 20,< 0.05,0.05 to 1,< 0.05
O=C(NO)[C@H]1CN(C(=O)Cc2cccnc2)CCN1S(=O)(=O)c1cc(F)c(Oc2ccc(Cl)cc2)c(F)c1 [Entry 47],> 20,< 0.05,0.05 to 1,< 0.05
O=C(NO)[C@H]1CN(C(=O)c2ccncc2)CCN1S(=O)(=O)c1cc(F)c(Oc2ccc(Cl)cc2)c(F)c1 [Entry 42],1 to 20,< 0.05,1 to 20,< 0.05
COCCN1CCN(S(=O)(=O)c2cc(F)c(Oc3ccc(Cl)cc3)c(F)c2)[C@@H](C(=O)NO)C1 [Entry 29],1 to 20,< 0.05,0.05 to 1,< 0.05
CCCC(CCC)C(=O)N1CCN(S(=O)(=O)c2cc(F)c(Oc3ccc(Cl)cc3)c(F)c2)[C@@H](C(=O)NO)C1 [Entry 44],> 20,< 0.05,1 to 20,0.05 to 1
